Laboratory results published in patent publication US9238571B2, “Formulations for c-Met kinase inhibitors” (Merck Sharp & Dohme Limited, priority 2009, dated 2016).

How the values were obtained:
[1] = Solubility measurements of Compound A HCl salt in 250 mL SGF with citric acid pre-dissolved; format: physicochemical
Description: FIG. 2 describes the solubility measurements for Compound A HCl salt in 250 mL of SGF with various amounts of citric acid anhydrous pre-dissolved.
Within this formulation the amount of citric acid anhydrous available is 160.44 mg (Target fill weight for the capsule is 382.0 mg)

[2] = Clinical studies with Compound A (exposure among patients); format: in vivo
Source text: The formulations of the instant invention have advantages over other formulations of c-Met kinase inhibitors. […] Based upon the sharp dependence of solubility on pH, it can be postulated that the performance of these formulations can vary based on variability in gastric pH. […] Exposure can vary due to many factors, including whether the inhibitor is taken with or without food. The formulations of the instant invention give in vivo exposures to the drug that are less sensitive to changes in gastric pH than other formulations.

In the case of Cn1cc(-c2cnc3ccc4ccc(CS(=O)(=O)NCc5ccccn5)cc4c(=O)c3c2)cn1 [Compound A, 1-[3-(1-Methyl-1H-pyrazol-4-yl)-5-oxo-5H-benzo[4,5]cyclohepta[1,2-b]pyridin-7-yl]-N-(pyridin-2-ylmethyl)methanesulfonamide], the maximum solubility ([1]; 300 mg of citric acid fully dissolved in 250 mL of SGF pH 3.0, Compound A HCl salt (FIG. 2)) is reported as “approximately 15 mg”, the “% dissolved equated from maximum solubility” value ([1]; for a 110 mg potency capsule, 300 mg citric acid pre-dissolved in 250 mL SGF pH 3.0) is reported as 14% and the “variability in Compound A exposure among patients” value [2] is reported as “high variability”. For the same compound, the “exposure in patients concomitantly taking antacids” value ([2]; some patients with high gastric pH (antacids)) was “lower exposures”.
